The values below are quoted from earlier work in patent US20120269803A1, “SUBSTITUTED BENZOSULPHONAMIDES” (BAYER INTELLECTUAL PROPERTY GMBH, priority 2009, published 2012).

One series relates to MEK1/2. Conditions: MEK1/2 inhibitor, literature [17].
For series [1] the following is noted: phase I/II clinical trials in humans, literature [19].
The test system of another series is colon cancer. The following applies: oral treatment, mouse models, literature [18].

`O=C(NOCC1CC1)c1ccc(F)c(F)c1Nc1ccc(I)cc1Cl` [PD184352]: the IC50 entry with MEK1/2 is given as “low nanomolar range”. In addition, the clinical efficacy result in series [1] is on record as “insufficient efficacy”. Also, the “colon cancer growth in vivo” value in the series on colon cancer is reported as “inhibit colon cancer growth in vivo”.
